The test deals with T1, human sPLA2 (Type V) (Homo sapiens, UniProt P39877).
T1 construct: gene PLA2G5
T1 sequence (P39877 21-138): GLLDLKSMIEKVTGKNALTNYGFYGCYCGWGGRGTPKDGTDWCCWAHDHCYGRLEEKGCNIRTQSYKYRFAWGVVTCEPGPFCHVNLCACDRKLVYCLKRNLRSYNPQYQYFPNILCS
As to the kind of experiment: diheptanoyl thio-PC hydrolysis, DTNB colorimetric. It counts as biochemical. The following applies: read-out: sPLA2 (IC50 μg/mL) (converted). An excerpt:
diheptanoyl thio-PC hydrolysis, DTNB colorimetric on human sPLA2 (Type V)

`CCCCCCCCCCCCCCCCSC[C@H](COP(=O)([O-])OCC[N+](C)(C)C)NC(=O)CCCCCCCCCCCCCCC` [Thioetheramide-PC]: the IC50 was 2070 nM.

The values above are taken from article PMC8157459, “Exploring the anti-HIV-1 reverse transcriptase, anti-inflammatory, anti-cancer activities and cytotoxicity of two fermented commercial herbal concoctions sold in Limpopo Province of South Africa” (BMC Complementary Medicine and Therapies, 2021).
